Measured values taken from ChEMBL document CHEMBL1141687, “Design, syntheses, and structure-activity relationships of novel NPY Y5 receptor antagonists: 2-{3-Oxospiro[isobenzofuran-1(3H),4'-piperidin]-1'-yl}benzimidazole derivatives” (Bioorg Med Chem Lett, 2008).
Activity calls are given as the source filed them. The calls are words filed in the database; no cut-off is given here.

Experiments:
[1] = biological target: T1, Neuropeptide Y receptor type 2 (Homo sapiens, UniProt P49146); assay: Binding affinity to NPY Y2 receptor
T1 sequence (P49146 whole entry): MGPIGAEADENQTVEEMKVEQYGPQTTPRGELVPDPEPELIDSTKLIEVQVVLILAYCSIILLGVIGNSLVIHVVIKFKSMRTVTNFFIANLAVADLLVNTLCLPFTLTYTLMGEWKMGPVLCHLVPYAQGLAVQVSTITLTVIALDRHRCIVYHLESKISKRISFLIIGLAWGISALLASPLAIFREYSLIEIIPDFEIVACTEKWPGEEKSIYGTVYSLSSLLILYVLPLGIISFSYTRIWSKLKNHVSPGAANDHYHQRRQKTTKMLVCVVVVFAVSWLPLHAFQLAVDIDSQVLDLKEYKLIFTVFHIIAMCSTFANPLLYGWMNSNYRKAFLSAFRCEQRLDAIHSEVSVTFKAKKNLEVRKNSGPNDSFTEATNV

[2] = biological target: Neuropeptide Y receptor type 4 (Homo sapiens, UniProt P50391); assay: Binding affinity to NPY Y4 receptor
[3] = biological target: T2, Neuropeptide Y receptor type 1 (Homo sapiens, UniProt P25929); assay: Binding affinity to NPY Y1 receptor
T2 sequence (P25929 whole entry): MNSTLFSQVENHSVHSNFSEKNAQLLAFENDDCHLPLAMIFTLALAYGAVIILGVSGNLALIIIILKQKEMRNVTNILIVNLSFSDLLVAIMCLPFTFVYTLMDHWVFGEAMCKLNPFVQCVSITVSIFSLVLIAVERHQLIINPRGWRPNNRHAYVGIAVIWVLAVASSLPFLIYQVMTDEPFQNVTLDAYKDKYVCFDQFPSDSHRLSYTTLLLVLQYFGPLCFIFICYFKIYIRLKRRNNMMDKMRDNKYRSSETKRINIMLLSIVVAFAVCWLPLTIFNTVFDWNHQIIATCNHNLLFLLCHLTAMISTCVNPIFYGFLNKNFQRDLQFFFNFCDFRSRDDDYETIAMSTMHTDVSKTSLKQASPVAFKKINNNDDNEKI

Rattus norvegicus [4] = assay: Plasma concentration in rat at 10 mg/kg, po after 4 hrs; assay type: ADME, organism-based; set-up: dose 10 mg/kg, route oral
[5] = biological target: T3, Neuropeptide Y receptor type 5 (Homo sapiens, UniProt Q15761); assay: Antagonist activity at human NPY Y5 receptor transfected in mouse LMtk cells assessed as inhibition of neuropeptide Y-induced increase in […] Ca2+ level; assay type: functional, cell-based
T3 sequence (Q15761 whole entry): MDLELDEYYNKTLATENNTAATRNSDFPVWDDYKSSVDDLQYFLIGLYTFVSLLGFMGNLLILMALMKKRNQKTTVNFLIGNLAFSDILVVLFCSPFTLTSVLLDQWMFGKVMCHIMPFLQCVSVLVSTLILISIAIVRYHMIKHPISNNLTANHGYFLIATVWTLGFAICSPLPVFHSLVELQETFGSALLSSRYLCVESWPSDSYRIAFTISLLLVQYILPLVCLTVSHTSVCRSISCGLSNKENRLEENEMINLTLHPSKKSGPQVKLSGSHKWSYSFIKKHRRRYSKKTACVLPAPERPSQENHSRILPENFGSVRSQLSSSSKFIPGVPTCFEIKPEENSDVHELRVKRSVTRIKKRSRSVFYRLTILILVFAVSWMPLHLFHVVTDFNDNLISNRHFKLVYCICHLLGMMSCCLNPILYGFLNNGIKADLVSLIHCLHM

[6] = biological target: T3, Neuropeptide Y receptor type 5; assay: Binding affinity to human NPY Y5 receptor transfected in mouse LMtk cells; assay type: cell-based
Rattus norvegicus [7] = assay: Plasma concentration in rat at 10 mg/kg, po after 2 hrs; assay type: ADME, organism-based; set-up: dose 10 mg/kg, route oral
in vivo = settings: rat, brain and plasma, po, 10 mg/kg
Description: Ratio of drug level in brain to plasma in rat at 10 mg/kg, po after 2 hrs

Rattus norvegicus [8] = assay: Suppression of intracerebroventricular injected D-trp34NPY-induced food intake in SD rat at 10 mg/kg, po administered 2 hrs prior to ICV injection measured after 2 hrs of D-trp34NPY challenge; assay type: functional, organism-based; set-up: dose 10 mg/kg

Sequence of Neuropeptide Y receptor type 4 (P50391 whole entry): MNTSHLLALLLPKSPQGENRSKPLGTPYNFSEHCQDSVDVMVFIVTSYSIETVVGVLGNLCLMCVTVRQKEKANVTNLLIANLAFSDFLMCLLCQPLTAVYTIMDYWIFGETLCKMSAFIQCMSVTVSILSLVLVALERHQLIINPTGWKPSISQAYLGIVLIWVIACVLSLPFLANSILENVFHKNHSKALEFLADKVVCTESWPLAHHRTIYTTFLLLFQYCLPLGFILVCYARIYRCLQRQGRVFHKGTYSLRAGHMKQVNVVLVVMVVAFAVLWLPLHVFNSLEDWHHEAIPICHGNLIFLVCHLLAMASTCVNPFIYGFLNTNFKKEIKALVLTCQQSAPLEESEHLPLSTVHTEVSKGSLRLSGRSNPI

SMILES | IC50 [6] | also measured
O=C1OC2(CCN(c3nc4cc(-c5ccccc5)ccc4[nH]3)CC2)c2ccccc21 | 0.0024 µM | IC50 [1]: > 10 µM; IC50 [2]: > 10 µM; IC50 [3]: > 10 µM; plasma concentration (Rattus norvegicus [4]): 1.3 µM; IC50 [5]: 0.0018 µM; Concentration (Rattus norvegicus [7]): 1.8 µM; Kp at 2 h (in vivo): 0.35
CS(=O)(=O)c1ccc2[nH]c(N3CCC4(CC3)OC(=O)c3ccccc34)nc2c1 | 0.085 µM | –
CC(=O)Nc1ccc2nc(N3CCC4(CC3)OC(=O)c3ccccc34)[nH]c2c1 | 0.13 µM | –
O=C1O[C@]2(CC[C@@H](c3nc4cccnc4[nH]3)CC2)c2ccccc21 | 1.4 µM | –
CN(C)C(=O)c1ccc2nc(N3CCC4(CC3)OC(=O)c3ccccc34)[nH]c2c1 | 0.058 µM | –
O=C1OC2(CCN(c3nc4cccc(C(F)(F)F)c4[nH]3)CC2)c2ccccc21 | 0.083 µM | –
O=C(O)c1ccc2[nH]c(N3CCC4(CC3)OC(=O)c3ccccc34)nc2c1 | > 1 µM | –
O=C1OC2(CCN(c3nc4cccc(Cl)c4[nH]3)CC2)c2ccccc21 | 0.051 µM | –
O=C1OC2(CCN(c3nc4ccccc4[nH]3)CC2)c2ccccc21 | 0.14 µM | –
CS(=O)(=O)N1CC2(CCN(c3nc4ccccc4[nH]3)CC2)c2ccccc21 | > 1 µM | –
O=C1OC2(CCN(c3nc4ccccc4s3)CC2)c2ccccc21 | > 10 µM | –
COc1ccc2[nH]c(N3CCC4(CC3)OC(=O)c3ccccc34)nc2c1 | 0.037 µM | –
O=C1OC2(CCN(c3nc4c(F)cccc4[nH]3)CC2)c2ccccc21 | 0.5 µM | –
O=C1OC2(CCN(c3nc4cc5c(cc4[nH]3)OC(F)(F)O5)CC2)c2ccccc21 | 0.0022 µM | –
O=C1OC2(CCN(c3nc4cc5c(cc4[nH]3)OCO5)CC2)c2ccccc21 | 0.0093 µM | –
O=C1OC2(CCN(c3nc4cc(Cl)c(Cl)cc4[nH]3)CC2)c2ccccc21 | 0.0016 µM | IC50 [1]: > 10 µM; IC50 [2]: > 10 µM; IC50 [3]: > 10 µM; plasma concentration (Rattus norvegicus [4]): 4.6 µM; IC50 [5]: 0.0014 µM; Concentration (Rattus norvegicus [7]): 2.9 µM
O=C1OC2(CCN(c3nc4cc(C(F)(F)F)ccc4[nH]3)CC2)c2ccccc21 | 0.0035 µM | IC50 [1]: > 10 µM; Activity (Rattus norvegicus [8]): Active; IC50 [2]: > 10 µM; IC50 [3]: > 10 µM; plasma concentration (Rattus norvegicus [4]): 17.5 µM; IC50 [5]: 0.0064 µM; Concentration (Rattus norvegicus [7]): 15.3 µM; Kp at 2 h (in vivo): 0.31
CS(=O)(=O)Nc1ccc2nc(N3CCC4(CC3)OC(=O)c3ccccc34)[nH]c2c1 | 0.056 µM | –
CNC(=O)c1ccc2nc(N3CCC4(CC3)OC(=O)c3ccccc34)[nH]c2c1 | 0.02 µM | –
O=C1OC2(CCN(c3nc4cc(Cl)ccc4[nH]3)CC2)c2ccccc21 | 0.0066 µM | IC50 [1]: > 10 µM; IC50 [2]: > 10 µM; IC50 [3]: > 10 µM; plasma concentration (Rattus norvegicus [4]): 25.6 µM; IC50 [5]: 0.0012 µM; Concentration (Rattus norvegicus [7]): 27.8 µM

SMILES | IC50 [6] | also measured
O=C1OC2(CCN(c3nc4cc(F)ccc4[nH]3)CC2)c2ccccc21 | 0.028 µM | –
COc1cccc2[nH]c(N3CCC4(CC3)OC(=O)c3ccccc34)nc12 | 0.25 µM | –
O=C1OC2(CCN(c3nc4c(-c5ccccc5)cccc4[nH]3)CC2)c2ccccc21 | 0.017 µM | –
O=C1OC2(CCN(c3nc4ccc(Br)cc4[nH]3)CC2)c2ccccc21 | 0.01 µM | –
Cc1ccc2[nH]c(N3CCC4(CC3)OC(=O)c3ccccc34)nc2c1 | 0.036 µM | –
CCOC(=O)c1ccc2nc(N3CCC4(CC3)OC(=O)c3ccccc34)[nH]c2c1 | 0.002 µM | –
NC(=O)c1ccc2nc(N3CCC4(CC3)OC(=O)c3ccccc34)[nH]c2c1 | 0.11 µM | –
O=C1OC2(CCN(c3nc4cccnc4[nH]3)CC2)c2ccccc21 | 1.6 µM | –
O=C1OC2(CCN(c3nc4cc(Cl)c(F)cc4[nH]3)CC2)c2ccccc21 | 0.0067 µM | –
Cc1cc2nc(N3CCC4(CC3)OC(=O)c3ccccc34)[nH]c2cc1C | 0.0092 µM | –
COC(=O)c1ccc2[nH]c(N3CCC4(CC3)OC(=O)c3ccccc34)nc2c1 | 0.0027 µM | IC50 [1]: > 10 µM; IC50 [2]: > 10 µM; IC50 [3]: > 10 µM; plasma concentration (Rattus norvegicus [4]): 0.1 µM; IC50 [5]: 0.0015 µM; Concentration (Rattus norvegicus [7]): 3.2 µM; Kp at 2 h (in vivo): 0.08
O=C1OC2(CCN(Cc3nc4ccccc4[nH]3)CC2)c2ccccc21 | 4.9 µM | –
O=C1O[C@]2(CC[C@H](c3nc4ncccc4[nH]3)CC2)c2ccccc21 | 0.091 µM | –
O=C1OC2(CCN(c3nc4cc(F)c(F)cc4[nH]3)CC2)c2ccccc21 | 0.0048 µM | –
O=C1OC2(CCN(c3nc4ccc([N+](=O)[O-])cc4[nH]3)CC2)c2ccccc21 | 0.01 µM | –
N#Cc1ccc2[nH]c(N3CCC4(CC3)OC(=O)c3ccccc34)nc2c1 | 0.019 µM | –
O=C1OC2(CCN(c3nc4cc(Cl)cc(Cl)c4[nH]3)CC2)c2ccccc21 | 0.0057 µM | –
CC(C)Cc1ccc2nc(N3CCC4(CC3)OC(=O)c3ccccc34)[nH]c2c1 | 0.0018 µM | –
Cc1cccc2[nH]c(N3CCC4(CC3)OC(=O)c3ccccc34)nc12 | 0.074 µM | –
